Source: publication PMC12135066, “Design and Preclinical Evaluation of Novel uPAR-Targeting Radiopeptides Modified with an Albumin-Binding Entity” (Molecular Pharmaceutics, 2025)

Columns and labels:
[1] = Radiolytic stability of the radiopeptides in saline with L-ascorbic acid; settings: 50 MBq/nmol in saline, 150 MBq/300 µL, L-ascorbic acid (3 mg, 20 µL) and NaOAc (0.5 M, 30 µL), HPLC, product peak relative to t=0 (100%), average ± SD, n=3
Method: The radiolytic stability of the radiopeptides (50 MBq/nmol) in saline (150 MBq/300 μL) was assessed in the absence and presence of L-ascorbic acid (3 mg added in a volume of 20 μL). After an incubation period of 1, 4, and 24 h, aliquots of the solutions were analyzed using HPLC. The integrated peak area representing the intact radiopeptide was expressed as the percentage of the sum of all peaks of the chromatogram. The final amount of intact radiopeptide was expressed as the percentage of the product peak obtained at t = 0, which was set as 100% (Supporting Information).
The radiolytic stability of [177Lu]Lu-DOTA-AE105 and the new 177Lu-labeled uPAR-targeting
radiopeptides (50 MBq/nmol) was assessed in vitro in the formulated solution . The radiopeptide s were
diluted in saline to obtain an activity concentration of 150 MBq in 300 µL in the presence of L-ascorbic
acid (3 mg, 20 µL) and NaOAc (0.5 M, 30 µL) to compensate for the acidic pH. Aliquots of the dilutions
were analyzed using HPLC after incubation periods of 1 h, 4 h and 24 h . The integrated peak area
measured for the intact radioligand peak was expressed as the percentage of the sum of the integrated
peak areas of each peak present in the chromatogram. The final amount of intact radiopeptide at t = 1 h,
4 h and 24 h was expressed by correcting the obtained percentage of the product peak to this peak
obtained at t = 0, which was set as 100%.

[2] = tested on: HEK-uPAR xenograft-bearing nude mice; assay: Biodistribution studies in HEK-uPAR xenograft-bearing nude mice; settings: average ± SD, n=3 animals
Method: (§1) All applicable international, national, and/or institutional guidelines for the care and use of laboratory animals were followed, and the herein reported experiments were carried out according to the guidelines of the Swiss Regulations for Animal Welfare. The preclinical studies were ethically approved by the Cantonal Committee of Animal Experimentation and permitted by the responsible cantonal authorities (License No. 75721). Five-week-old female CD1/nude (Crl:CD1-Foxn ^ nu ) and female immunocompetent FVB (FVB/NCrl) mice were obtained from Charles River Laboratories (Sulzfeld, Germany). All mice were acclimatized for at least 7 days, receiving standard rodent chow ad libitum before being included in the reported studies. The CD1/nude mice were subcutaneously inoculated with HEK-uPAR cells (7 × 10^6 cells in 100 μL PBS) on the right shoulder. […] Typically, it took 3–11 weeks to reach xenograft volumes of 40–600 mm^3 at the time of testing the tissue distribution of the radiopeptides. The immunocompetent FVB mice were used for testing the in vivo stability of the radiopeptides.
(§2) The mice were injected with the radiopeptides (5 MBq, 0.5 nmol, 100 μL) in saline containing 0.05% BSA and sacrificed at 4 and 24 h after injection of the radiopeptides. Selected tissues and organs were collected, weighed, and measured with the γ-counter (1480 Wizard, PerkinElmer). […] A p-value of <0.05 was considered a statistically significant difference (GraphPad Prism software, version 8.3.1).
(§3) Decay-corrected data is shown as average ± SD of n = 3 animals of % injected activity per gram (IA/g) tissue.

[3] = as above; settings: female, mouse, 0.5 nmol, total radioactivity, 5 MBq, 0.5 nmol, decay-corrected, average ± SD, n=3 animals; for tissue uptake at 4 h: 4 h p.i.; for tissue uptake at 24 h: 24 h p.i.
Method: as §1, §2, §3

[4] = Stability of the radiopeptides in human blood plasma
Method: The radiopeptides (50 MBq/nmol) stabilized with L-ascorbic acid were diluted in mouse and human blood plasma and incubated at 37 °C. Aliquots were taken after 1, 4, and 24 h and analyzed using reversed-phase thin-layer chromatography (TLC) (Supporting Information).
aProduct peak expressed as percentage of the sum of integrated peak areas of the entire chromatogram relative to
the value obtained immediately after labeling (set as 100%), average ± standard deviation (SD) (n=3).
Stability of the Radiopeptides in Mouse and Human Blood Plasma
Purpose: The stability of the radiopeptides was assessed in mouse and human blood plasma as an
indication for their in vivo stability.
Methods: The radiopeptides (50 MBq/nmol) stabilized with L-ascorbic acid were diluted in mouse
blood plasma (Lot: 32321, Rockland Immunochemicals Inc., U.S.A.) or in human blood plasma
(Stiftung Blutspende SRK Aargau -Solothurn, Switzerland) at a concentration of 10 MBq/200 µL and
incubated at 37 °C over a 24 h time period. Control samples were prepared by diluting the radiopeptides
in saline at the same activity concentration. Aliquots of each dilution were taken after 1 h, 4 h, and 24 h
(2 µL, ~100 kBq) and investigated employing thin layer chromatography (TLC) methods on reversed-
phase TLC plates (MERCK Analytical Chromatography, TLC Silica gel 60 RP -18 F254s) as stationary
phase and a 3/7 (v/v) mixture of acetonitrile /citrate buffer (0.1 M, pH 5.5) as mobile phase. A dilution
of [177Lu]LuCl3/HCl 0.04 M (10 MBq/200 µL) was added on each TLC plate. The developed and dried
TLC plates were exposed to a phosphor screen (Super resolution screen PSR10450013, PerkinElmer)
for 1 min. The screen was read with a Cyclone Plus phosphor imager (PerkinElmer) and the peak
quantification was performed using OptiQuant Software (version 5.0).

[5] = n-Octanol/PBS distribution coefficients (logD values); settings: n-octanol/PBS pH 7.4, pH 7.4
[6] = Stability of the radiopeptides in mouse blood plasma
[7] = target: T1, human uPAR (Homo sapiens, UniProt Q03405); assay: uPAR-binding affinity (KD values), saturation experiments with HEK-uPAR cells; settings: saturation binding on HEK-uPAR cells, on ice (4 °C) 1 h, 1–1600 nM radiopeptide, ± AE105 40 µM; γ-counter; nonlinear regression; average ± SD, n=3
T1 construct: host or cells: HEK cells (HEK-uPAR)
Method: To determine the uPAR-binding affinity of the radiopeptides, saturation experiments were performed using HEK-uPAR cells in 48-well plates (Supporting Information). The cells were incubated on ice for 1 h in the presence or absence of excess AE105 (final concentration of 40 μM) together with the respective radiopeptide at a concentration range of 1–1600 nM. After rinsing the cells with PBS, they were lysed with an aqueous NaOH solution (1 M, 600 μL), transferred to radioimmunoassay tubes, and measured in a γ-counter (1480 Wizard, PerkinElmer). The K D values were determined by plotting the specific binding (values of samples incubated without AE105 minus the values of samples incubated with AE105) against the molar concentration of the added peptide. A nonlinear regression analysis was performed using GraphPad Prism software (version 8.3.1). The results were expressed as average ± SD of n = 3 independently performed experiments. […]
7. Determination of uPAR-Binding Affinity (KD Values)
Purpose: The uPAR-binding affinity of the radiopeptides were determined to investigate the impact of structural changes on the receptor binding.
Methods: HEK-uPAR cells were seeded in poly-D-lysine-coated 48-well plates (0.25 × 10 6 in 0.5 mL per well) using DMEM cell culture medium with supplements. The cells were incubated at 37 °C and 5% CO2 overnight to allow adhesion and growth. After removing the supernatant, the well plates with HEK-uPAR cells were placed on ice to prevent internalization of the radiopeptides. The cells were rinsed with cold PBS (0.5 mL, pH 7.4) followed by the addition of DMEM cell culture medium without supplements (450 µL/well) in the presence or absence of AE105 ( final concentration 40 µM) as a receptor-blocking agent. The radiopeptides (5 MBq/nmol) were diluted in PBS to obtain peptide concentrations ranging from 10 ‒16000 nM. From each dilution, 50 µL were added to each well to obtain final peptide concentrations of 1 nM to 1600 nM. The cells were incubated at 4 °C for 1 h before rinsing twice with PBS (0.5 mL, pH 7.4). The cells were lysed using an aqueous NaOH solution (1 M, 600 µL) and the lysates were transferred to RIA tubes for counting the activity in a γ-counter (1480 Wizard, PerkinElmer) . The KD values were determined by plotting specific binding (total binding minus unspecific binding) against the molar concentration of the added radiopeptide using GraphPad Prism (version 8.3.1). the results were then expressed as average K D values ± SD of n = 3 independent […]
Results: The results are reported in the main article.

[8] = tested on: human serum albumin (HSA); assay: Albumin-binding properties in human blood plasma (ultrafiltration assay); settings: ultrafiltration (Amicon, 10 kDa), human blood plasma dilutions in PBS pH 7.4, [HSA]-to-[radiopeptide] 0.01–20000, 0.006 nmol, 37 °C 30 min, γ-counter; inverse ratio of B50, [177Lu]Lu-uPAR-01 set as 1.00; average curve of 3 experiments
Method: The relative albumin-binding affinities of the radiopeptides in mouse and human blood plasma were determined using an ultrafiltration assay with Amicon centrifugal filters (cutoff of 10 kDa; Merck Millipore), as previously reported (Supporting Information). A fixed amount of the respective radiopeptide (15 μL, ∼300 kBq, 0.006 nmol) was added to a defined volume (150 μL) of mouse and human blood plasma dilutions to obtain [mouse serum albumin (MSA)]-to-[radiopeptide] and [human serum albumin (HSA)]-to-[radiopeptide] molar concentration ratios of 0.01–12,500 and 0.01–20,000, respectively. The data were analyzed using a semilogarithmic Hill plot with the maximum binding set as 100% (GraphPad Prism software, version 8.3.1).
Determination of the Albumin-Binding Properties
Purpose: The radiopeptides were investigated with regard to their albumin-binding capabilities in vitro
as a measure to predict blood retention in vivo.
Methods: The relative albumin-binding affinity of the radiopeptides in mouse blood plasma (Rockland
Immunochemicals, Inc., U.S.A.) and human blood plasma (Stiftung Blutspende SRK Aargau-
Solothurn, Switzerland) were determined using an ultrafiltration method. The amount of mouse serum
albumin (MSA) and human serum albumin (HSA) in mouse and human blood plasma was defined as
550 μM and 800 μM, respectively, based on measurements using a dry chemistry analyzer (DRI-CHEM
4000i, FUJIFILM, Japan). A fixed amount of radiopeptide (50 MBq/nmol, ~300 kBq, 15 μL, 0.006
nmol) was added to a defined volume (150 μL) of mouse and human blood plasma and various dilutions
thereof in PBS pH 7.4, resulting in defined [MSA]-to-[radiopeptide] or [HSA]-to-[radiopeptide] molar
concentration ratios ranging from 0.01 ‒12500 and 0.01‒20000, respectively, followed by incubation of
the samples at 37 °C for 30 min. Ice-cold PBS (150 µL, pH 7.4) was added before loading the blood
plasma samples on Amicon centrifugal filters (cut -off of 10 kDa; Merck Millipore) followed by
centrifugation (14000 rcf, 30 min, 4 °C) to allow the separation of the plasma protein -bound from the
plasma-unbound (free) fractions of each sample. The inserts of the filter devices were inverted and centrifuged at 200 rcf for 3 min to recover the protein -bound radiopeptide. The activity in the filtrate
and filter unit was measured in a γ-counter (1480 Wizard, PerkinElmer) and the counts were combined
assuming that the fraction retained in the filter membrane was not bound to proteins. The protein -bound
fraction was expressed as percentage of the whole activity (i.e. plasma protein -bound activity, activity
measured in the filtrate and activity measured in the filter (set as 100%) ). The data were analyzed using
a semi-logarithmic plot assuming a maximum binding of 100%. The Hill equation was fitted to the data
points and the half -maximum binding ( B50) based on the average curve obtained from three independent
experiments (GraphPad Prism software, version 8.3 .1). The relative albumin-binding affinit ies of the
reference compound, whose relative binding affinity was set as 1.0. The results were presented as the
B50 value obtained from the average curve from 3 independent experiments.

[9] = CD1/nude (Crl:CD1-Foxn nu), HEK-uPAR xenograft, HEK-uPAR xgft
[10] = CD1/nude (Crl:CD1-Foxn nu), liver, Liver
[11] = CD1/nude, blood, 5 MBq (0.5 nmol)
[12] = CD1/nude, bone, 5 MBq (0.5 nmol)
[13] = CD1/nude, brain, 5 MBq (0.5 nmol)
[14] = CD1/nude, heart, 5 MBq (0.5 nmol)
[15] = CD1/nude, intestines, 5 MBq (0.5 nmol)
[16] = CD1/nude, kidneys, 5 MBq (0.5 nmol)
[17] = CD1/nude, liver, 5 MBq (0.5 nmol)
[18] = CD1/nude, lung, 5 MBq (0.5 nmol)
[19] = CD1/nude, muscle, 5 MBq (0.5 nmol)
[20] = CD1/nude, pancreas, 5 MBq (0.5 nmol)
[21] = CD1/nude, salivary glands, 5 MBq (0.5 nmol)
[22] = CD1/nude, spleen, 5 MBq (0.5 nmol)
[23] = CD1/nude, stomach, 5 MBq (0.5 nmol)

T1 sequence (Q03405 23-335): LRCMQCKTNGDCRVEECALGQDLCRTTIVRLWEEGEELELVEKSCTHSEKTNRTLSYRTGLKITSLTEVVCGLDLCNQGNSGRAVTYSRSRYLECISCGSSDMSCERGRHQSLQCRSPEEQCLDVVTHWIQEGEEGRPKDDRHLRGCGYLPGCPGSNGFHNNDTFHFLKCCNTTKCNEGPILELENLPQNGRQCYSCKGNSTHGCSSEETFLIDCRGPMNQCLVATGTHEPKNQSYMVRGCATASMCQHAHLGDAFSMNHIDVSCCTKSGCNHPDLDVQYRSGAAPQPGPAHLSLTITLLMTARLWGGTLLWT

- radiolytic stability, % intact radiopeptide ([1]; 1 h): 98 ± 2%
- radiolytic stability, % intact radiopeptide ([1]; 4 h): 98 ± 1%
- HEK-uPAR xgft ([2]; 4 h p.i., 5 MBq, 0.5 nmol, decay-corrected): 0.87 ± 0.05 % IA/g
- Xenograft-to-blood ratio ([2]; 4 h p.i.): 11 ± 1
- Xenograft-to-kidney ratio ([2]; 4 h p.i.): 0.58 ± 0.03
- Xenograft-to-liver ratio ([2]; 4 h p.i.): 8.6 ± 0.4
- Xenograft-to-blood ratio ([2]; 24 h p.i.): 32 ± 13
- Xenograft-to-kidney ratio ([2]; 24 h p.i.): 0.33 ± 0.14
- Xenograft-to-liver ratio ([2]; 24 h p.i.): 2.4 ± 0.9
- tissue uptake at 4 h [3, 9]: < 1 %ID/g
- tissue uptake at 24 h [3, 9]: 0.4 ± 0.19 %ID/g
- tissue uptake at 4 h [3, 10]: < 0.2 %ID/g
- tissue uptake at 24 h [3, 10]: < 0.2 %ID/g
- tissue uptake at 4 h ([3]; CD1/nude (Crl:CD1-Foxn nu), whole blood, Blood): < 0.1 %ID/g
- tissue uptake at 4 h [3, 11]: 0.08 ± 0.01 %ID/g
- tissue uptake at 24 h [3, 11]: < 0.05 %ID/g
- tissue uptake at 4 h [3, 12]: 0.38 ± 0.03 %ID/g
- tissue uptake at 24 h [3, 12]: 0.84 ± 0.1 %ID/g
- tissue uptake at 4 h [3, 13]: < 0.05 %ID/g
- tissue uptake at 24 h [3, 13]: < 0.05 %ID/g
- tissue uptake at 4 h [3, 14]: 0.06 ± 0.01 %ID/g
- tissue uptake at 24 h [3, 14]: < 0.05 %ID/g
- tissue uptake at 4 h [3, 15]: 0.31 ± 0.03 %ID/g
- tissue uptake at 24 h [3, 15]: 0.18 ± 0.02 %ID/g
- tissue uptake at 4 h [3, 16]: 1.5 ± 0.1 %ID/g
- tissue uptake at 24 h [3, 16]: 1.3 ± 0.1 %ID/g
- tissue uptake at 4 h [3, 17]: 0.1 ± 0.01 %ID/g
- tissue uptake at 24 h [3, 17]: 0.17 ± 0.01 %ID/g
- tissue uptake at 4 h [3, 18]: 0.3 ± 0.02 %ID/g
- tissue uptake at 24 h [3, 18]: 0.21 ± 0.01 %ID/g
- tissue uptake at 4 h [3, 19]: < 0.05 %ID/g
- tissue uptake at 24 h [3, 19]: < 0.05 %ID/g
- tissue uptake at 4 h [3, 20]: 0.06 ± 0.01 %ID/g
- tissue uptake at 24 h [3, 20]: 0.06 ± 0.01 %ID/g
- tissue uptake at 4 h [3, 21]: 0.09 ± 0.01 %ID/g
- tissue uptake at 24 h [3, 21]: 0.09 ± 0.01 %ID/g
- tissue uptake at 4 h [3, 22]: 0.18 ± 0.02 %ID/g
- tissue uptake at 24 h [3, 22]: 0.23 ± 0.04 %ID/g
- tissue uptake at 4 h [3, 23]: 0.15 ± 0.03 %ID/g
- tissue uptake at 24 h [3, 23]: 0.17 ± 0.03 %ID/g
- Intact radiopeptide in human blood plasma [%] ([4]; 24 h, human blood plasma, 10 MBq/200 µL, 50 MBq/nmol, stabilized with L-ascorbic acid, 37 °C, reversed-phase TLC, phosphor imager, relative to t=0 (100%), average ± SD, n=3): ~4.5%
- remaining at 1 h, 10 MBq/200 µL ([4]; human, blood plasma): 71 ± 3%
- remaining at 24 h, 10 MBq/200 µL ([4]; human, blood plasma): 4.5 ± 1.2%
- remaining at 4 h, 10 MBq/200 µL ([4]; human, human blood plasma): ~13%
- logD [5]: -1.38 ± 0.18
- Intact radiopeptide in mouse blood plasma [%] ([6]; 24 h, mouse blood plasma, 10 MBq/200 µL, 50 MBq/nmol, stabilized with L-ascorbic acid, 37 °C, reversed-phase TLC, phosphor imager, relative to t=0 (100%), average ± SD, n=3): ~4.5%
- remaining at 1 h, 10 MBq/200 µL ([6]; mouse, blood plasma): 61 ± 6%
- remaining at 24 h, 10 MBq/200 µL ([6]; mouse, blood plasma): 4.6 ± 2.2%
- remaining at 4 h, 10 MBq/200 µL ([6]; mouse, mouse blood plasma): ~13%
- Kd [7]: 20 ± 1 nM
- Relative albumin-binding affinity, human blood plasma [8]: 0.01
SMILES: CC(C)C[C@H](NC(=O)[C@H](Cc1ccc(O)cc1)NC(=O)[C@@H](CCCNC(=N)N)NC(=O)[C@@H](CO)NC(=O)[C@H](Cc1ccccc1)NC(=O)[C@H](CC1CCCCC1)NC(=O)[C@H](CC(=O)O)NC(=O)CN1CCN(CC(=O)O)CCN(CC(=O)O)CCN(CC(=O)O)CC1)C(=O)N[C@@H](Cc1c[nH]c2ccccc12)C(=O)N[C@@H](CO)C(N)=O [[^177Lu]Lu-DOTA-AE105, metal not drawn, reference compound]
